In US20240391931A1 (Bristol-Myers Squibb Company, priority 2021, published 2024):

Experiments:
[1] = target: T1, HER2 (Homo sapiens, UniProt P04626); test: HER2 occupancy assay in BT474 cells; type: cell-based; conditions: concentration at which 50% of HER2 is irreversible bound, read-out: BT474 HER2 Occ
T1 construct: BT474 and N87 cell lines which endogenously overexpress the HER2 wildtype (WT) protein; endogenous in cells; host or cells: BT474, N87
Description: In order to assess free HER2 protein, a biotinylated probe was utilized. BT474, N87, and Ba/F3-HER2YVMA cells were treated with test compound as described for HER2 signaling. After compound treatment, cells were washed three times with cold phosphate buffer saline (PBS, Life Technologies, Carlsbad, CA), and lysed in modified occupancy lysis buffer prepared with an irreversible biotinylated tool compound (1 μM) in 25 mM Tris pH 7.5, 150 mM NaCl, 1% Triton, and supplemented with cOmplete, EDTA-free Protease inhibitor cocktail (Roche), Phosphatase Inhibitor Cocktails 2 and 3 (Sigma-Aldrich), and 1 mM PMSF (Sigma-Aldrich).
To determine % occupancy, lysates were loaded into duplicate plates of the phospho (Tyr1248)/total ErbB2 whole cell lysate MSD kit (Meso-Scale Discovery) and incubated overnight. Plates were washed and incubation with either HER2-sulfoTag (1:50, Meso Scale Discovery) or Strep-Sulfo Tag (1:1000, Meso Scale Discovery), for detection of […]. A standard curve of untreated cells in serial dilution was included in each plate to independently fit streptavidin (Free HER2) and total HER2 MSD signals; non-specific signal (BSA control spots) was subtracted from each well. Free HER2 was then normalized by total HER2 for each sample. The results are reported as % DMSO control. The normalized data was fitted using a sigmoidal curve analysis program (Graph Pad Prism version 6) with variable Hill slope to determine EC50 values. The results are provided in Table 4, under columns titled “BT474-HER2 Occ”, “N87-HER2 Occ”, and “Ba/F3 YVMA-HER2 Occ”. HER2 Occ is the concentration of test compound at which 50% of HER2 is irreversible bound.

[2] = target: EGFR (Homo sapiens, UniProt P00533); test: EGFR occupancy in N87 cells; type: cell-based; design: endogenous in cells; host or cells: N87; conditions: N87 cells; concentration at which 50% of EGFR is irreversible bound; read-out: N87 EGFR Occ
Description: In order to assess free EGFR protein, a biotinylated probe was utilized as described for HER2 occupancy. N87 cells were plated, treated, and lysed as described for HER2 occupancy method. After treatment, the cells were washed three times with cold PBS, lysed at room temperature for 1 hr in modified occupancy lysis buffer (prepared as described in section titled “HER2 Occupancy Assay”). Lysates were stored at −70° C. until further analysis. For determination of % occupancy, lysates were loaded into duplicate plates of the phospho (Tyr 1068)/total EGFR whole cell lysate kit (Meso-Scale Discovery) and incubated overnight. Plates were washed and incubated with either EGFR-sulfoTag (1:50, Meso Scale Discovery) or Strep-Sulfo Tag (1:1000, Meso Scale Discovery), for detection of free and total EGFR, respectively. BSA control spots included in MSD plates were used to subtract non-specific signal. A standard curve of untreated cells in serial dilution was included in each plate to convert streptavidin and total EGFR MSD signals into free EGFR and total EGFR. Free EGFR was normalized to total EGFR for each sample. Data, reported as % […] control, was fitted using a sigmoidal curve analysis program (Graph Pad Prism version 6) with variable Hill slope to determine EC50 values. The results are provided in Table 4, under column titled “N87-EGFR Occ”. EGFR Occ is the concentration of test compound at which 50% of EGFR is irreversible bound.

T1 sequence (P04626 23-1255): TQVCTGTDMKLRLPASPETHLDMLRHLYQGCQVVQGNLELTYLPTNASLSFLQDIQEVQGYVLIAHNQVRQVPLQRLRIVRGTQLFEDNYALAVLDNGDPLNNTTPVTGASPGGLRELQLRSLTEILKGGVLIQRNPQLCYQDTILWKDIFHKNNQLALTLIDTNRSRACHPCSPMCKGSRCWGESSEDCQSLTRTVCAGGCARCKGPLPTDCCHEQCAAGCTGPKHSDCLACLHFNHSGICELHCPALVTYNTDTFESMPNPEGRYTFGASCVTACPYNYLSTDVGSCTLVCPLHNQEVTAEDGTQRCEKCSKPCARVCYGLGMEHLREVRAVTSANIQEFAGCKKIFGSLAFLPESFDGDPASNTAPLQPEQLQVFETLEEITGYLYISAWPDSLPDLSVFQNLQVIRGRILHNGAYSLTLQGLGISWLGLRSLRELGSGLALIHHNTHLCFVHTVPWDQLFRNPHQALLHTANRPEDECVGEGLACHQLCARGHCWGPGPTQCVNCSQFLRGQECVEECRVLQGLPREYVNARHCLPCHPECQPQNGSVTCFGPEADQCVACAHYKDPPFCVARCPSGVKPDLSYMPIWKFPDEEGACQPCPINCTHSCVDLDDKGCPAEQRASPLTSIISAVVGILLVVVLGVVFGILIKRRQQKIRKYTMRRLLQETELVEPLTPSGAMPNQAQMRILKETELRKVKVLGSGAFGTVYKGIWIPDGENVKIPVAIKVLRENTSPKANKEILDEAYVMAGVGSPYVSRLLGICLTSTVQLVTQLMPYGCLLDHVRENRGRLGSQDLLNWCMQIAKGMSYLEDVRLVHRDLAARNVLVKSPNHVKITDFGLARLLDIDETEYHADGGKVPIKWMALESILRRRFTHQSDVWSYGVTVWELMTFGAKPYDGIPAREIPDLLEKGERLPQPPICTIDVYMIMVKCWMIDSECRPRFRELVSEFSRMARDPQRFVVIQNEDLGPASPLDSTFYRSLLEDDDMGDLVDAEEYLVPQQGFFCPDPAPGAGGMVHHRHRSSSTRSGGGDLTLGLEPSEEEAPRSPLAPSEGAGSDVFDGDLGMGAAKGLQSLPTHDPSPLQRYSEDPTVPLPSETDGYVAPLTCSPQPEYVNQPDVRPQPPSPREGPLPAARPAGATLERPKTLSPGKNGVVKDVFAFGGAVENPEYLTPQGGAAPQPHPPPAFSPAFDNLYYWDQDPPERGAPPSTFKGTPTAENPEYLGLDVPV
EGFR, sequence (P00533 25-1210): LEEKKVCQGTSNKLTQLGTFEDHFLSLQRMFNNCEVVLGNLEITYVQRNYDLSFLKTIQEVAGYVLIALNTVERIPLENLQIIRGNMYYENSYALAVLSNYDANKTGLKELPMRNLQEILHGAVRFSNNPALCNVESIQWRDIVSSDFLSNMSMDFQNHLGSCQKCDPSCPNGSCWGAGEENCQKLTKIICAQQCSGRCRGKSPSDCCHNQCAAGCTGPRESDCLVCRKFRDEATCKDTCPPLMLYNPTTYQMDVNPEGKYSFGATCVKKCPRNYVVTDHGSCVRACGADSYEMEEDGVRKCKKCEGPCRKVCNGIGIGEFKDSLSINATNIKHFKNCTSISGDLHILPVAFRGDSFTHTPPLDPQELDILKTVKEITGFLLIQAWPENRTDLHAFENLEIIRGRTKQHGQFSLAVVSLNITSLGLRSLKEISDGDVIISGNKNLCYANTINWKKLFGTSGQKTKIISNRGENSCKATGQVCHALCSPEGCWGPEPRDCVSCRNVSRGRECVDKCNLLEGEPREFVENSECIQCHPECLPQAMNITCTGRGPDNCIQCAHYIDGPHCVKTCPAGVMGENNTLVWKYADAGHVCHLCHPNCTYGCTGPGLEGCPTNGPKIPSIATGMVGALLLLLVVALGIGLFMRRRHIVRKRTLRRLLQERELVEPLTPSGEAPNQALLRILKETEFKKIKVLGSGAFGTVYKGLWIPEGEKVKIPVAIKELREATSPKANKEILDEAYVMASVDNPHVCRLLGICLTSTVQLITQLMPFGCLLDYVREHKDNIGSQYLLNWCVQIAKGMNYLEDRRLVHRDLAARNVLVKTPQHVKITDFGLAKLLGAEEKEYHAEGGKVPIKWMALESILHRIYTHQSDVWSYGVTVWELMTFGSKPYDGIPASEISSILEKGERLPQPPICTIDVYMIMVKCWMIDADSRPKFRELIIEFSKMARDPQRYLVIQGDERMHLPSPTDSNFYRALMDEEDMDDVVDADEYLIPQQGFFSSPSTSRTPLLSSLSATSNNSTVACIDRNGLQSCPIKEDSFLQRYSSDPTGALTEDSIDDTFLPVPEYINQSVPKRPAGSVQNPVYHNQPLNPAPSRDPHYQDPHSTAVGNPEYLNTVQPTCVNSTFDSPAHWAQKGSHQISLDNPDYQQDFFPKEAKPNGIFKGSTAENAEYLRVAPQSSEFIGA

| EC50 [1] | EC50 [2] | SMILES |
| --- | --- | --- |
| < 100 nM |  | CN(C)C/C=C/C(=O)N1CCc2c(sc3ncnc(Nc4ccc(Oc5ccc6ncnn6c5)c(Cl)c4)c23)C1 [Compound 5, (E)-1-(4-((4-([1,2,4]triazolo[1,5-a]pyridin-6-yloxy)-3-chlorophenyl)amino)-5,8-dihydropyrido[4′,3′:4,5]thieno[2,3-d]pyrimidin-7(6H)-yl)-4-(dimethylamino)but-2-en-1-one] |
|  | 100 to 350 nM | COc1ccc(Oc2ccc(Nc3ncnc4sc5c(c34)CCN(C(=O)/C=C/CN(C)C)C5)cc2C)cn1 [Compound 95, (E)-4-(Dimethylamino)-1-(4-((4-((6-methoxypyridin-3-yl)oxy)-3-methylphenyl)amino)-5,6-dihydropyrido[4′,3′:4,5]thieno[2,3-d]pyrimidin-7(8H)-yl)but-2-en-1-one] |
